Source: PMC11350846, “Synthesis of Second-Generation Analogs of Temporin-SHa Peptide Having Broad-Spectrum Antibacterial and Anticancer Effects” (Antibiotics, 2024)
Where a SMILES comes first, the peptide text is derived from it. [ ]: non-standard residue; d: D form.

Experiments:
[1] = tested on: P. aeruginosa (ATCC 9027); conditions: P. aeruginosa (ATCC 9027), 18-24 h
Description: (§1) The peptides were assessed for their antibacterial activity by determining the minimum inhibitory concentration (MIC) using the two-fold serial dilution method following the National Committee of Clinical Laboratory Standards, as previously described. Gram-negative (Acinetobacter baumannii (DSM 30007), Escherichia coli (ATCC 8739), Enterobacter cloacae (DSM 30054), Helicobacter pylori (ATCC 43504), Klebsiella pneumoniae (DSM 26371), Pseudomonas aeruginosa (ATCC 9027)) and Gram-positive bacteria (Bacillus subtilis (ATCC 6633), Enterococcus faecalis (DSM 2570), Enterococcus faecium (DSM 20477), Staphylococcus aureus (ATCC 6538)) were used for the antibacterial activity assays. In brief, 3 mL of Mueller–Hinton (MH) broth was inoculated with single clusters of the various bacterial strains and incubated overnight at 37 °C with agitation at 200 rpm. The next day, the bacterial solution was diluted with sterile MH by 1/100 and further incubated at 37 °C and 200 rpm until the bacteria reached the log phase growth (OD600nm around 0.6). The bacterial suspension was then adjusted to a density of approximately 10^5 bacteria/mL, and 100 μL was added per well of 96-well microplates (Greiner BioOne, Les Ulis, France), followed by exposure to increasing concentrations of peptides (from 0 to 100 µM, 1:2 dilution). Plates were then incubated at 37 °C for 18-24 h under either aerobic (for A. baumannii, E. cloacae, E. coli, P. aeruginosa, B. subtilis, and S. aureus) or micro-aerobic conditions generated using GasPak units (for E. faecalis, E. faecium and, H. pylori). […] The optical density (OD) at 600nm was measured using a microplate reader (Biotek, Synergy Mx, Les Ulis, France) after the final incubation. All experiments were performed in triplicate (n = 3).

A. baumannii (DSM 30007) = conditions: A. baumannii (DSM 30007), 18-24 h
Description: as §1

S. aureus (ATCC 6538) = conditions: 18-24 h
Description: as §1

E. faecium (DSM 20477) = conditions: E. faecium (DSM 20477), micro-aerobic, 18-24 h
Description: as §1

E. faecalis (DSM 2570) = conditions: E. faecalis (DSM 2570), micro-aerobic, 18-24 h
Description: as §1

K. pneumonia (DSM 26371) = conditions: K. pneumonia (DSM 26371), 18-24 h
Description: as §1

H. pylori (ATCC 43504) = conditions: micro-aerobic, 18-24 h
Description: as §1

E. coli (ATCC 8739) = conditions: E. coli (ATCC 8739), 18-24 h
Description: as §1

E. cloacae (DSM 30054) = conditions: E. cloacae (DSM 30054), 18-24 h
Description: as §1

B. subtilis (ATCC 6633) = conditions: 18-24 h
Description: as §1

Skin Cancer (MNT-1) = assay type: cell-based, human; conditions: MNT-1, 48 h; read-out: 50% inhibitory concentrations (IC50), cell proliferation
Description: The antiproliferative activity of the peptides was evaluated, as previously described using human cancer cell lines (A549 (lung), A2780 (ovary), HepG-2 (liver), MCF-7 (breast), MiaPaCa-2 (pancreas), MNT-1 (skin), and PC-3 (prostate)) and normal human lung fibroblasts (IMR-90) or epithelial cells (BEAS-2B). The cells were cultured in DMEM supplemented with 10% FBS, 1% L-glutamine, and 1% antibiotics at 37 °C in a 5% CO2 incubator. For the antiproliferative assay, cells were seeded in 96-well plates at approximately 3000 cells/well. Twenty-four hours later, cells were treated with increasing concentrations of peptides (1:2 serial dilution from 100 µM to 0 µM) for 48 h. After treatment, the number of viable cells was determined using a resazurin-based assay, and the fluorescence intensity was measured with a microplate reader (Ex 530 nm/Em 590 nm). The IC50 values of the peptides (i.e., the concentrations causing 50% inhibition of cell proliferation) were determined using GraphPad® Prism 7 software. The experiments were performed in triplicate (n = 3). The cytotoxicity of the peptides was also evaluated using confluent/no-dividing cells, as previously described. Briefly, human cells were seeded onto 96-well plates at 20,000 cells/well. When they reached 80–90% confluence (after 24–48 h), cells were treated with escalating concentrations of peptides. After 48h incubation, cell viability was measured using a resazurin assay and CC50 (i.e., the concentrations causing 50% inhibition of cell viability) and determined using GraphPad® Prism 7 software. The experiments were performed in triplicate (n = 3).

[2] = Circular dichroism, secondary structure (Bestsel); assay type: physicochemical; conditions: CD in 20 mM SDS
Description: Circular dichroism of temporin SHa, [G10a]-SHa and newly synthesised second-generation analogs of [G10a]-SHa in 20 mM SDS are shown in Figure 2. In lipidic environments mimicked by SDS, peptides adopt an alpha helical structure due to their amphipathic nature. This structural feature is important for their antimicrobial activity, allowing for their insertion into bacterial membranes. The hydrophobic region of the peptide interacts with the hydrophobic portion of the lipid while the hydrophilic region remains exposed to the aqueous environment. The percentage of alpha helix, as well as the percentage of other secondary structures, was determined from CD data using Bestsel software (https://bestsel.elte.hu/index.php, (accessed on 22 June 2024)) (Table 3). Temporin-SHa (1) adopted a 49.5% α-helical structure, while its first-generation analog [G10a]-SHa (2) acquired a 82.4% alpha helical structure. The 84.6%, 88.7%, 4.7%, and 53.8% alpha helical structures were acquired for second-generation analogs 3, 4, 5, and 6, respectively.
The far-ultraviolet CD spectra were obtained using a JASCO J-810 spectropolarimeter (Jasco, Tokyo, Japan). In addition to this, the quartz cuvette of 10 mm path length was used. The temperature was maintained at 22 °C, and the output of the instrument was calibrated using D-(+)-10-camphorsulfonic acid. The peptides, which were present at a concentration of 1.0 mg/mL, were dissolved completely in 20 mM SDS at a concentration of 15 µM [21]. The instrument was set to record wavelengths ranging from 190 to 260 nm with a bandwidth of 2 nm. Ten consecutive scans (accumulations) were recorded for each spectrum at a rate of 50 nm/min, and the baseline was acquired under the same conditions.

Row | Structure (SMILES) | minimum inhibitory concentration (MIC) [1] [µM] | minimum inhibitory concentration (MIC) (A. baumannii (DSM 30007)) [µM] | minimum inhibitory concentration (MIC) (S. aureus (ATCC 6538)) [µM] | minimum inhibitory concentration (MIC) (E. faecium (DSM 20477)) [µM] | minimum inhibitory concentration (MIC) (E. faecalis (DSM 2570)) [µM] | minimum inhibitory concentration (MIC) (K. pneumonia (DSM 26371)) [µM] | minimum inhibitory concentration (MIC) (H. pylori (ATCC 43504)) [µM] | minimum inhibitory concentration (MIC) (E. coli (ATCC 8739)) [µM] | minimum inhibitory concentration (MIC) (E. cloacae (DSM 30054)) [µM] | minimum inhibitory concentration (MIC) (B. subtilis (ATCC 6633)) [µM] | IC50 (Skin Cancer (MNT-1)) [µM] | Antiparallel [2] [%] | Helix (alpha helical structure) [2] [%] | Others [2] [%] | Parallel [2] [%] | Turn [2] [%]
1 | CC[C@H](C)[C@H](NC(=O)CNC(=O)[C@H](CO)NC(=O)[C@H](CC(C)C)NC(=O)[C@@H](N)Cc1ccccc1)C(=O)N[C@H](C(=O)NCC(=O)N[C@@H](CCSC)C(=O)N[C@@H](CC(C)C)C(=O)NCC(=O)N[C@@H](CCCCN)C(=O)N[C@@H](CC(C)C)C(=O)N[C@@H](Cc1ccccc1)C(N)=O)C(C)C [Temporin-SHa (1), H-Phe^1-Leu^2-Ser^3-Gly^4-IIe^5-Val^6-Gly^7-Met^8-Leu^9-Gly^10-Lys^11-Leu^12-Phe^13-NH2, reference compound] (H-FLSGIVGMLGKLF-NH2) | 50 | 6.25 | 3.12 | 6.25 | 12.5 | 50 | 3.12 | 50 | 50 | 1.56 | > 100 | 0.00 | 49.5 | 49.80 | 0.00 | 0.70
2 | CC[C@H](C)[C@H](NC(=O)CNC(=O)[C@H](CO)NC(=O)[C@H](CC(C)C)NC(=O)[C@@H](N)Cc1ccccc1)C(=O)N[C@H](C(=O)NCC(=O)N[C@@H](CCSC)C(=O)N[C@@H](CC(C)C)C(=O)N[C@H](C)C(=O)N[C@@H](CCCCN)C(=O)N[C@@H](CC(C)C)C(=O)N[C@@H](Cc1ccccc1)C(N)=O)C(C)C [[G10a]-SHa (2), H-Phe^1-Leu^2-Ser^3-Gly^4-IIe^5-Val^6-Gly^7-Met^8-Leu^9-D-Ala^10-Lys^11-Leu^12-Phe^13-NH2] (H-FLSGIVGML[dA]KLF-NH2) | >100 | 12.5 | 3.12 | >100 | 25 | 100 | 3.12 | 100 | >100 | 3.12 | 14 ± 0.8 | 17.60 | 82.4 | 0.00 | 0.00 | 0.00
